Measured values: paper PMC7659345, “Viral rhodopsins 1 are an unique family of light-gated cation channels” (Nature Communications, 2020)

Experiments:
OLPVR1 = target: T1, OLPVR1 (Organic Lake phycodnavirus 1, UniProt Z9N4O7KYY5); experiment: X-ray crystal structure, […] A (type A, P21212) and […] A (type B, P1); type: binding; details: covalent Schiff base to K204; all-trans 15-anti; crystals grown in meso with monopalmitolein, pH 8.0 (7AKY); also 7AKX (monoolein, pH 7.0)
T1 construct: residues 2-223 resolved; one (P21212) or two (P1) molecules per asymmetric unit
T1 sequence (Z9N4O7KYY5 1-223): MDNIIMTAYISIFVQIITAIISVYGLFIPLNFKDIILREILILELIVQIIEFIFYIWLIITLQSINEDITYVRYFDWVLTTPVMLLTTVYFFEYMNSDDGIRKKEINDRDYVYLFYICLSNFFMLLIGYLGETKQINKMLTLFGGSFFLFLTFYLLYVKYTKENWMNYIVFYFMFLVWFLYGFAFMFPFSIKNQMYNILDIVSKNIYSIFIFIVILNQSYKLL

VirChR1 = target: T2, VirChR1 (marine metagenome, UniProt Z9TV22U1G0); experiment: UV-visible absorption of purified holoprotein; type: binding; details: covalent Schiff base (by homology); pH 7.5; all-trans-retinal added to E. coli culture
T2 sequence (Z9TV22U1G0 1-242): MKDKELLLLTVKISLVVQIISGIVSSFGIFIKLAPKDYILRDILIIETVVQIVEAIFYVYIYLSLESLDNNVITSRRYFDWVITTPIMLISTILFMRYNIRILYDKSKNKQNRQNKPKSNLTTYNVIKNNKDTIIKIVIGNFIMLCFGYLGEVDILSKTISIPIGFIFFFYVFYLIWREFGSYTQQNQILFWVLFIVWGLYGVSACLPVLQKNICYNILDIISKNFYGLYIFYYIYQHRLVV

Q: With CC1=C(/C=C/C(C)=C/C=C/C(C)=C/C=O)C(C)(C)CCC1 [all-trans retinal] as the molecule, how does the “X-ray crystal structure, 1.4 A (type A, P21212) and 1.6 A (type B, P1)” value (OLPVR1) read?
A: all-trans retinal (ATR) covalently bound to K204 (K257 in CrChR2

Q: What about the “UV-visible absorption of purified holoprotein” value (VirChR1) of the same molecule?
A: Both OLPVR1 and VirChR1 show absorption spectra sensitive to blue light
